12 compounds from PMC8838787, “The Antiproliferative and Apoptotic Effects of a Novel Quinazoline Carrying Substituted-Sulfonamides: In Vitro and Molecular Docking Study” (Molecules, 2022) can be followed below.

Data set [1] deals with HUVEC normal cells. The data set is described as follows: MTT cell viability assay, normal HUVEC. Conditions: Homo sapiens, 48 h, average ± SD (n = 3). Format: cell-based. The procedure:
(§1) Compounds 4a–n were subjected to the cytotoxicity screening of the cell lines MCF-7 (breast), LoVo (colon), HepG2 (liver) and A549 (lung) carcinoma cells as well as HUVEC normal cell lines. The MTT assay was employed to assess cytotoxicity after 48 h of treatment with different concentrations of each compound and doxorubicin was used as a reference drug. The results were presented in Table 1 as growth inhibitory concentration (IC50 values).
(§2) Cell viability was determined using 3-(4,5-dimethylthiazol-2-yl)-2,5-diphenyl tetrazolium bromide (MTT) assay as stated previously. In brief, A549 (lung), HepG2 (liver), LoVo (colon), MCF-7 (breast) cancer cells as well as normal cells (HUVEC) were seeded in 96-well plates (10^5 per well) and compounds were added in a different final concentration. All cells were treated for 48 h, and then 10μL of MTT reagent (5 mg/mL) was added to each well and further incubated for 4 h. Thereafter, 0.1 mL of acidified isopropanol was added to solubilize formazan product and the developed color was measured at 570 nm in Microplate ELISA Reader (BioTek, Elx-800, Winooski, VT, USA). The IC50 values (concentration required for 50% inhibition of cell viability) were calculated using dose response curve. Cell viability was calculated as = (Ab Treated/Ab Control) × 100.
(§3) The A549, HepG2, LoVo and MCF-7 cancer cell lines were obtained from the German Collection of Microorganisms and Cell Cultures (DSMZ) (Braunschweig, Germany). For Human umbilical vein endothelial cells (HUVEC cells), it was purchased from American Type Culture Collection (16549; Cat no. PCS-100-010; ATTCC, Manassas, VA, USA).

The test system of data set [2] is LoVo (colon) cancer cells. The data set is described as follows: MTT cell viability assay, LoVo. Format: cell-based. Conditions: Homo sapiens, 48 h, average ± SD (n = 3). The procedure: as §1, §2, §3
Data set [3] has as its system MCF-7 (breast) cancer cells. The data set is described as follows: MTT cell viability assay, MCF-7. Conditions: for IC50: Homo sapiens, MCF7, 48 h, average ± SD (n = 3); for cytotoxic activity (in words, SAR discussion): 48 h. Format: cell-based, human. The procedure: as §1, §2, §3
In data set [4] the test system is HepG2 (liver) cancer cells. Nature of the data set: MTT cell viability assay, HepG2. Conditions: Homo sapiens, 48 h, average ± SD (n = 3). Format: cell-based. The procedure:
as §1, §2, §3

Data set [5] relates to A549 (lung) cancer cells. Nature of the data set: MTT cell viability assay, A549. Conditions: Homo sapiens, A549, 48 h, average ± SD (n = 3). Format: cell-based. The procedure:
as §1, §2, §3

Compound `COc1cccc2c(=O)n(-c3ccc(S(=O)(=O)NCC(=O)Nc4ccccc4)cc3)c(SCC(=O)Nc3ccccc3)nc12` [Compound 4a] had a melting point of 165 to 167 °C. In addition, the IC50 in data set [1] was 20.9 ± 1 µM. Also, half-maximal inhibition in data set [2] (IC50) required 37.5 ± 1.8 µM. For the same compound, the IC50 in data set [3] turned out to be 14.2 ± 0.4 µM. Further, the IC50 in data set [4] worked out at 35 ± 1.2 µM. 19.6 ± 1.7 µM corresponded to half-maximal inhibition in data set [5] (IC50).

The compound `COc1cccc2c(=O)n(-c3ccc(S(=O)(=O)NCC(=O)Nc4ccccc4C)cc3)c(SCC(=O)Nc3ccccc3C)nc12` [Compound 4b] registered a melting point of 102 to 104 °C. This compound also registered an IC50 in data set [1] of 32.7 ± 1.2 µM. This compound gave an IC50 in data set [2] of 35.8 ± 1 µM. This compound displayed an IC50 in data set [3] of 36.2 ± 2 µM. The same compound displayed an IC50 in data set [4] of 33.7 ± 0.8 µM. This compound also came in with an IC50 in data set [5] of 11.4 ± 1.6 µM.

In turn, `COc1cccc2c(=O)n(-c3ccc(S(=O)(=O)NCC(=O)Nc4cccc(C)c4)cc3)c(SCC(=O)Nc3cccc(C)c3)nc12` [Compound 4c] had a melting point of 112 to 114 °C. The compound also yielded an IC50 in data set [1] of over 40 µM. Also, the IC50 in data set [2] is over 40 µM. For the same compound, in data set [3], the “cytotoxic activity (in words, SAR discussion)” value (shortened to “cytotoxic activity”) is reported as “abolishes the cytotoxicity” and the IC50 is over 40 µM. In data set [4], this compound registered an IC50 of over 40 µM. This compound showed an IC50 in data set [5] of over 40 µM.

As to `CCc1ccccc1NC(=O)CNS(=O)(=O)c1ccc(-n2c(SCC(=O)Nc3ccccc3CC)nc3c(OC)cccc3c2=O)cc1` [Compound 4e, N-(2-ethylphenyl)-2-((3-(4-(N-(2-((2-ethylphenyl)amino)-2-oxoethyl)sulfamoyl)-phe-nyl)-8-methoxy-4-oxo-3,4-dihydroquinazolin-2yl)thio)acetamide], the melting point was 246 to 248 °C. For the same compound, the IC50 in data set [1] is over 40 µM. The IC50 in data set [2] is over 40 µM. In data set [3], the “cytotoxic activity” value is on record as “no antiproliferative” and the IC50 was over 40 µM. Further, in data set [4], the IC50 is over 40 µM. The compound further gave an IC50 in data set [5] of over 40 µM.

In turn, `CCc1ccc(NC(=O)CNS(=O)(=O)c2ccc(-n3c(SCC(=O)Nc4ccc(CC)cc4)nc4c(OC)cccc4c3=O)cc2)cc1` [Compound 4g, N-(4-ethylphenyl)-2-((3-(4-(N-(2-((4-ethylphenyl)amino)-2-oxoethyl)sulfamoyl)-phenyl)-8-methoxy-4-oxo-3,4-dihydroquinazolin-2yl)thio)acetamide] registered a melting point of 219 to 221 °C. The same compound registered an IC50 in data set [1] of over 40 µM. Moreover, in data set [2], the IC50 was over 40 µM. For the same compound, in data set [3], the “cytotoxic activity” value was “no antiproliferative” and the IC50 is over 40 µM. This compound also registered an IC50 in data set [4] of over 40 µM. In addition, the IC50 in data set [5] was over 40 µM.

Consider `COc1ccc(NC(=O)CNS(=O)(=O)c2ccc(-n3c(SCC(=O)Nc4ccc(OC)cc4)nc4c(OC)cccc4c3=O)cc2)cc1` [Compound 4h, 2-(4-(8-Methoxy-2-((2-((4-methoxyphenyl)amino)-2-oxoethyl)thio)-4-oxoquinazolin-3(4H)-yl)phenylsulfonamido)-N-(4-methoxy-phenyl)acetamide], for which the melting point was in the range of 117 to 119 °C. This compound also registered an IC50 in data set [2] of 31.7 ± 1 µM. In data set [3], the IC50 stood at 31.6 ± 1.3 µM. In addition, half-maximal inhibition in data set [4] (IC50) required 25.4 ± 0.95 µM. In data set [5], this compound had an IC50 of 13.3 ± 0.85 µM.

`CCOc1ccc(NC(=O)CNS(=O)(=O)c2ccc(-n3c(SCC(=O)Nc4ccc(OCC)cc4)nc4c(OC)cccc4c3=O)cc2)cc1` [Compound 4i, N-(4-Ethoxyphenyl)-2-((3-(4-N-(2((4-ethoxyphenyl)amino)-2-oxoethyl)sulfamoyl)-phenyl-8-methoxy-4-oxo-3,4-dihydroquinazolin-2-yl)thio)acetamide] showed a melting point of over 350 °C. This compound also gave an IC50 in data set [1] of 18.2 ± 2.2 µM. This compound displayed an IC50 in data set [2] of 22 ± 1.01 µM. This compound displayed an IC50 in data set [3] of 26.4 ± 0.79 µM. In data set [4], this compound came in with an IC50 of 20.6 ± 1.6 µM. The midpoint of inhibition in data set [5], the IC50, lay at 13.8 ± 0.5 µM.

On to `COc1cc(NC(=O)CNS(=O)(=O)c2ccc(-n3c(SCC(=O)Nc4cc(OC)cc(OC)c4)nc4c(OC)cccc4c3=O)cc2)cc(OC)c1` [Compound 4j, N-(3,5-Dimethoxyphenyl)-2-((3-(4-N-(2((3,5-dimethoxyphenyl)amino)-2-oxoethyl)-sulfa-moyl)phenyl-8-methoxy-4-oxo-3,4-dihydroquinazolin-2-yl)thio)acetamide], for which the melting point is 239 to 241 °C. In data set [1], the IC50 is over 40 µM. For the same compound, in data set [2], the IC50 is over 40 µM. Moreover, in data set [3], the IC50 is over 40 µM. For the same compound, the IC50 in data set [4] is over 40 µM. In data set [5], this compound registered an IC50 of over 40 µM.

Take `COc1cc(NC(=O)CNS(=O)(=O)c2ccc(-n3c(SCC(=O)Nc4cc(OC)c(OC)c(OC)c4)nc4c(OC)cccc4c3=O)cc2)cc(OC)c1OC` [Compound 4k]: the melting point fell in the range of 260 to 262 °C. The compound further registered an IC50 in data set [1] of over 40 µM. For the same compound, in data set [2], the IC50 was over 40 µM. The IC50 in data set [3] was over 40 µM. In data set [4], this compound had an IC50 of over 40 µM. The compound also returned an IC50 in data set [5] of over 40 µM.

The compound `COc1cccc2c(=O)n(-c3ccc(S(=O)(=O)NCC(=O)Nc4ccc([N+](=O)[O-])cc4C)cc3)c(SCC(=O)Nc3ccc([N+](=O)[O-])cc3C)nc12` [Compound 4l, 2-(4-(8-Methoxy-2-((2-((2-methyl-4-nitrophenyl)amino)-2-oxoethyl)thio)-4-oxoquinazolin-3(4H)-yl)phenylsulfonamido)-N-(2-methyl-4-nitrophenyl)acetamide] had a melting point of 127 to 129 °C. In data set [1], this compound returned an IC50 of over 40 µM. This compound returned an IC50 in data set [2] of over 40 µM. Also, in data set [3], the IC50 is over 40 µM. The same compound gave an IC50 in data set [4] of over 40 µM. In addition, the IC50 in data set [5] is over 40 µM.

For `COc1cccc2c(=O)n(-c3ccc(S(=O)(=O)NCC(=O)Nc4c(C)cccc4[N+](=O)[O-])cc3)c(SCC(=O)Nc3c(C)cccc3[N+](=O)[O-])nc12` [Compound 4m, 2-(4-(8-Methoxy-2-((2-((2-methyl-6-nitrophenyl)amino)-2-oxoethyl)thio)-4-oxoquinazolin-3(4H)-yl)phenylsulfonamido)-N-(2-methyl-6-nitrophenyl)acetamide], the melting point was 272 to 274 °C. Moreover, the concentration for half-maximal inhibition (IC50) in data set [1] is over 40 µM. This compound displayed an IC50 in data set [2] of over 40 µM. For the same compound, the IC50 in data set [3] is over 40 µM. The compound also yielded an IC50 in data set [4] of over 40 µM. This compound also registered an IC50 in data set [5] of over 40 µM.

Turning to `COc1cccc2c1C(=O)c1c(O)c3c(c(O)c1C2=O)C[C@@](O)(C(=O)CO)C[C@@H]3O[C@H]1C[C@H](N)[C@H](O)[C@H](C)O1` [Doxorubicin, reference compound], the IC50 in data set [1] was 3.7 ± 0.2 µM; in data set [2], 1.5 ± 0.05 µM; in data set [3] it was 1.4 ± 0.3 µM; in data set [5], 1.1 ± 0.01 µM.
